Measurements published in ChEMBL document CHEMBL2396621, “Design, synthesis and biological evaluation of 2-mercapto-3-phenethylquinazoline bearing anilide fragments as potential antitumor agents: molecular docking study” (2013).

Key:
Format in all cases: functional
[1] = tested on: HCT-116; experiment: Cytotoxicity against human HCT116 cells assessed as growth inhibition at 10 uM after 48 hrs by coulter counter analysis; details: HCT-116, 48 h, read-out: GI
[2] = tested on: HCT-15; experiment: Cytotoxicity against human HCT15 cells assessed as growth inhibition at 10 uM after 48 hrs by coulter counter analysis; details: HCT-15, 48 h, read-out: GI
[3] = tested on: Malme-3M; experiment: Cytotoxicity against human MALME-3M cells assessed as growth inhibition at 10 uM after 48 hrs by coulter counter analysis; details: read-out: GI
[4] = tested on: T47D; experiment: Cytotoxicity against human T47D cells assessed as growth inhibition at 10 uM after 48 hrs by coulter counter analysis; details: read-out: GI
[5] = tested on: OVCAR-5; experiment: Cytotoxicity against human OVCAR5 cells assessed as growth inhibition at 10 uM after 48 hrs by coulter counter analysis; details: OVCAR-5, 48 h, read-out: GI
[6] = tested on: MDA-MB-435; experiment: Cytotoxicity against human MDA-MB-435 cells assessed as growth inhibition at 10 uM after 48 hrs by coulter counter analysis; details: MDA-MB-435, 48 h, read-out: GI
[7] = tested on: U-251; experiment: Cytotoxicity against human U251 cells assessed as growth inhibition at 10 uM after 48 hrs by coulter counter analysis; details: U-251, 48 h, read-out: GI
[8] = tested on: ACHN; experiment: Cytotoxicity against human ACHN cells assessed as growth inhibition at 10 uM after 48 hrs by coulter counter analysis; details: read-out: GI
[9] = tested on: BT-549; experiment: Cytotoxicity against human BT549 cells assessed as growth inhibition at 10 uM after 48 hrs by coulter counter analysis; details: BT-549, 48 h, read-out: GI
[10] = tested on: A498; experiment: Cytotoxicity against human A498 cells assessed as growth inhibition at 10 uM after 48 hrs by coulter counter analysis; details: A498, 48 h, read-out: GI
[11] = tested on: MDA-MB-231; experiment: Cytotoxicity against human MDA-MB-231 cells assessed as growth inhibition at 10 uM after 48 hrs by coulter counter analysis; details: MDA-MB-231, 48 h, read-out: GI
[12] = tested on: SW-620; experiment: Cytotoxicity against human SW620 cells assessed as growth inhibition at 10 uM after 48 hrs by coulter counter analysis; details: SW-620, 48 h, read-out: GI
[13] = tested on: OVCAR-8; experiment: Cytotoxicity against human OVCAR8 cells assessed as growth inhibition at 10 uM after 48 hrs by coulter counter analysis; details: OVCAR-8, 48 h, read-out: GI
[14] = tested on: HCC 2998; experiment: Cytotoxicity against human HCC2998 cells assessed as growth inhibition at 10 uM after 48 hrs by coulter counter analysis; details: HCC 2998, 48 h, read-out: GI
[15] = tested on: OVCAR-3; experiment: Cytotoxicity against human OVCAR3 cells assessed as growth inhibition at 10 uM after 48 hrs by coulter counter analysis; details: OVCAR-3, 48 h, read-out: GI
[16] = tested on: UO-31; experiment: Cytotoxicity against human UO31 cells assessed as growth inhibition at 10 uM after 48 hrs by coulter counter analysis; details: UO-31, 48 h, read-out: GI
[17] = tested on: PC-3; experiment: Cytotoxicity against human PC3 cells assessed as growth inhibition at 10 uM after 48 hrs by coulter counter analysis; details: PC-3, 48 h, read-out: GI
[18] = tested on: Hs-578T; experiment: Cytotoxicity against human Hs578T cells assessed as growth inhibition at 10 uM after 48 hrs by coulter counter analysis; details: read-out: GI
[19] = tested on: CAKI-1; experiment: Cytotoxicity against human Caki1 cells assessed as growth inhibition at 10 uM after 48 hrs by coulter counter analysis; details: CAKI-1, 48 h, read-out: GI
[20] = tested on: KM12; experiment: Cytotoxicity against human KM12 cells assessed as growth inhibition at 10 uM after 48 hrs by coulter counter analysis; details: KM12, 48 h, read-out: GI
[21] = tested on: TK-10; experiment: Cytotoxicity against human TK10 cells assessed as growth inhibition at 10 uM after 48 hrs by coulter counter analysis; details: TK-10, 48 h, read-out: GI
[22] = tested on: DU-145; experiment: Cytotoxicity against human DU145 cells assessed as growth inhibition at 10 uM after 48 hrs by coulter counter analysis; details: DU-145, 48 h, read-out: GI
[23] = tested on: RXF 393; experiment: Cytotoxicity against human RXF393 cells assessed as growth inhibition at 10 uM after 48 hrs by coulter counter analysis; details: RXF 393, 48 h, read-out: GI
[24] = tested on: SN12C; experiment: Cytotoxicity against human SN12C cells assessed as growth inhibition at 10 uM after 48 hrs by coulter counter analysis; details: read-out: GI
[25] = tested on: SK-MEL-28; experiment: Cytotoxicity against human SK-MEL-28 cells assessed as growth inhibition at 10 uM after 48 hrs by coulter counter analysis; details: SK-MEL-28, 48 h, read-out: GI
[26] = tested on: UACC-257; experiment: Cytotoxicity against human UACC257 cells assessed as growth inhibition at 10 uM after 48 hrs by coulter counter analysis; details: UACC-257, 48 h, read-out: GI
[27] = tested on: SNB-75; experiment: Cytotoxicity against human SNB75 cells assessed as growth inhibition at 10 uM after 48 hrs by coulter counter analysis; details: SNB-75, 48 h, read-out: GI
[28] = tested on: SNB-19; experiment: Cytotoxicity against human SNB19 cells assessed as growth inhibition at 10 uM after 48 hrs by coulter counter analysis; details: SNB-19, 48 h, read-out: GI
[29] = tested on: NCI-H322M; experiment: Cytotoxicity against human NCI-H322M cells assessed as growth inhibition at 10 uM after 48 hrs by coulter counter analysis; details: read-out: GI
[30] = tested on: HOP-62; experiment: Cytotoxicity against human HOP62 cells assessed as growth inhibition at 10 uM after 48 hrs by coulter counter analysis; details: HOP-62, 48 h, read-out: GI
[31] = tested on: SK-OV-3; experiment: Cytotoxicity against human SKOV3 cells assessed as growth inhibition at 10 uM after 48 hrs by coulter counter analysis; details: SK-OV-3, 48 h, read-out: GI
[32] = tested on: COLO 205; experiment: Cytotoxicity against human COLO205 cells assessed as growth inhibition at 10 uM after 48 hrs by coulter counter analysis; details: COLO 205, 48 h, read-out: GI
[33] = tested on: SK-MEL-5; experiment: Cytotoxicity against human SK-MEL-5 cells assessed as growth inhibition at 10 uM after 48 hrs by coulter counter analysis; details: SK-MEL-5, 48 h, read-out: GI
[34] = tested on: NCI-H23; experiment: Cytotoxicity against human NCI-H23 cells assessed as growth inhibition at 10 uM after 48 hrs by coulter counter analysis; details: NCI-H23, 48 h, read-out: GI
[35] = tested on: A549; experiment: Cytotoxicity against human A549 cells assessed as growth inhibition at 10 uM after 48 hrs by coulter counter analysis; details: A549, 48 h, read-out: GI
[36] = tested on: HT-29; experiment: Cytotoxicity against human HT-29 cells assessed as growth inhibition at 10 uM after 48 hrs by coulter counter analysis; details: HT-29, 48 h, read-out: GI
[37] = tested on: SF-539; experiment: Cytotoxicity against human SF539 cells assessed as growth inhibition at 10 uM after 48 hrs by coulter counter analysis; details: SF-539, 48 h, read-out: GI
[38] = Cytotoxicity against human EKVX cells assessed as growth inhibition at 10 uM after 48 hrs by coulter counter analysis; details: read-out: GI
[39] = tested on: NCI-H460; experiment: Cytotoxicity against human NCI-H460 cells assessed as growth inhibition at 10 uM after 48 hrs by coulter counter analysis; details: NCI-H460, 48 h, read-out: GI
[40] = tested on: SF-295; experiment: Cytotoxicity against human SF295 cells assessed as growth inhibition at 10 uM after 48 hrs by coulter counter analysis; details: SF-295, 48 h, read-out: GI
[41] = tested on: OVCAR-4; experiment: Cytotoxicity against human OVCAR4 cells assessed as growth inhibition at 10 uM after 48 hrs by coulter counter analysis; details: OVCAR-4, 48 h, read-out: GI
[42] = tested on: MDA-MB-468; experiment: Cytotoxicity against human MDA-MB-468 cells assessed as growth inhibition at 10 uM after 48 hrs by coulter counter analysis; details: MDA-MB-468, 48 h, read-out: GI
[43] = tested on: UACC-62; experiment: Cytotoxicity against human UACC62 cells assessed as growth inhibition at 10 uM after 48 hrs by coulter counter analysis; details: UACC-62, 48 h, read-out: GI
[44] = Cytotoxicity against human NCI-ADR-RES cells assessed as growth inhibition at 10 uM after 48 hrs by coulter counter analysis; details: read-out: GI
[45] = tested on: M14; experiment: Cytotoxicity against human M14 cells assessed as growth inhibition at 10 uM after 48 hrs by coulter counter analysis; details: M14, 48 h, read-out: GI
[46] = Cytotoxicity against human leukemia cells after 48 hrs by coulter counter analysis; details: Leukemia cell
[47] = Cytotoxicity against human CNS cancer cells after 48 hrs by coulter counter analysis; details: Cancer cell lines
[48] = Cytotoxicity against human ovarian cancer cells after 48 hrs by coulter counter analysis; details: Cancer cell lines
[49] = Cytotoxicity against human prostate cancer cells after 48 hrs by coulter counter analysis; details: Cancer cell lines
[50] = Cytotoxicity against human non-small cell lung cancer cells after 48 hrs by coulter counter analysis; details: Cancer cell lines
[51] = Cytotoxicity against human colon cancer cells after 48 hrs by coulter counter analysis; details: Cancer cell lines
[52] = Cytotoxicity against human breast cancer cells after 48 hrs by coulter counter analysis; details: Cancer cell lines
[53] = Cytotoxicity against human melanoma cells after 48 hrs by coulter counter analysis; details: Melanoma cell
[54] = Cytotoxicity against human renal cancer cells after 48 hrs by coulter counter analysis; details: Cancer cell lines
[55] = read-out: LC50 (the source's name)

## NC(=O)CSc1nc2ccccc2c(=O)n1CCc1ccccc1
[1]
  inhibition of growth at 10 µM: < 10%
[2]
  inhibition of growth at 10 µM: < 10%
[3]
  inhibition of growth at 10 µM: < 10%
[4]
  inhibition of growth at 10 µM: < 10%
[5]
  inhibition of growth at 10 µM: < 10%
[6]
  inhibition of growth at 10 µM: < 10%
[7]
  inhibition of growth at 10 µM: < 10%
[8]
  inhibition of growth at 10 µM: 34%
[9]
  inhibition of growth at 10 µM: < 10%
[10]
  inhibition of growth at 10 µM: < 10%
[11]
  inhibition of growth at 10 µM: < 10%
[12]
  inhibition of growth at 10 µM: < 10%
[13]
  inhibition of growth at 10 µM: < 10%
[14]
  inhibition of growth at 10 µM: < 10%
[15]
  inhibition of growth at 10 µM: < 10%
[16]
  inhibition of growth at 10 µM: < 10%
[17]
  inhibition of growth at 10 µM: < 10%
[18]
  inhibition of growth at 10 µM: < 10%
[19]
  inhibition of growth at 10 µM: 12%
[20]
  inhibition of growth at 10 µM: < 10%
[21]
  inhibition of growth at 10 µM: < 10%
[22]
  inhibition of growth at 10 µM: < 10%
[23]
  inhibition of growth at 10 µM: < 10%
[24]
  inhibition of growth at 10 µM: < 10%
[25]
  inhibition of growth at 10 µM: < 10%
[26]
  inhibition of growth at 10 µM: < 10%
[27]
  inhibition of growth at 10 µM: < 10%
[28]
  inhibition of growth at 10 µM: < 10%
[29]
  inhibition of growth at 10 µM: < 10%
[30]
  inhibition of growth at 10 µM: < 10%
[31]
  inhibition of growth at 10 µM: < 10%
[32]
  inhibition of growth at 10 µM: < 10%
[33]
  inhibition of growth at 10 µM: < 10%
[34]
  inhibition of growth at 10 µM: < 10%
[35]
  inhibition of growth at 10 µM: 12%
[36]
  inhibition of growth at 10 µM: < 10%
[37]
  inhibition of growth at 10 µM: < 10%
[38]
  inhibition of growth at 10 µM: 10%
[39]
  inhibition of growth at 10 µM: < 10%
[40]
  inhibition of growth at 10 µM: < 10%
[41]
  inhibition of growth at 10 µM: < 10%
[42]
  inhibition of growth at 10 µM: < 10%
[43]
  inhibition of growth at 10 µM: < 10%
[44]
  inhibition of growth at 10 µM: < 10%
[45]
  inhibition of growth at 10 µM: < 10%

## O=c1[nH]cc(F)c(=O)[nH]1 [FLUOROURACIL]
[46]
  TGI: > 100 µM
[47]
  TGI: > 100 µM
[47]; [55]
  CC50: > 100 µM
[48]
  GI50: 61.4 µM
  TGI: > 100 µM
[49]
  GI50: 22.7 µM
  TGI: > 100 µM
[49]; [55]
  CC50: > 100 µM
[50]
  GI50: > 100 µM
  TGI: > 100 µM
[50]; [55]
  CC50: > 100 µM
[51]
  GI50: 8.4 µM
  TGI: > 100 µM
[51]; [55]
  CC50: > 100 µM
[52]
  GI50: 76.4 µM
  TGI: > 100 µM
[53]
  GI50: 70.6 µM
  TGI: > 100 µM
[54]
  GI50: 45.6 µM
  TGI: > 100 µM
